From patent publication US11053204B2, “Pyrimidinyloxy benzene derivatives as herbicides” (FMC Corporation, priority 2015, dated 2021)

How the values were obtained:
Experiment in all cases: Test C postemergence, plant response rating
Type in all cases: in vivo
[1] = tested on: barnyardgrass (Echinochloa crus-galli); conditions: for Barnyardgrass plant response rating: scale 0 to 100 (0 no effect, 100 complete control)
Method in brief: (§1)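 After sowing in loam–sand blend or silt loam, pots were sprayed preemergence; separately grown 1- to 4-leaf plants were sprayed postemergence. Following 13 to 15 d under greenhouse conditions, injury was rated visually on a 0 to 100 scale.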

[2] = tested on: blackgrass (Alopecurus myosuroides); conditions: for Blackgrass plant response rating: scale 0 to 100 (0 no effect, 100 complete control)
Method in brief: as §1

[3] = tested on: corn (Zea mays); conditions: for Corn plant response rating: scale 0 to 100 (0 no effect, 100 complete control)
Method in brief: as §1

[4] = tested on: crabgrass, large (large crabgrass, Digitaria sanguinalis); conditions: for Crabgrass, Large plant response rating: scale 0 to 100 (0 no effect, 100 complete control)
Method in brief: as §1

[5] = tested on: galium (catchweed bedstraw, Galium aparine); conditions: for Galium plant response rating: scale 0 to 100 (0 no effect, 100 complete control)
Method in brief: as §1

[6] = tested on: kochia (Kochia scoparia); conditions: for Kochia plant response rating: scale 0 to 100 (0 no effect, 100 complete control)
Method in brief: as §1

[7] = tested on: lambsquarters (Chenopodium album); conditions: for Lambsquarters plant response rating: scale 0 to 100 (0 no effect, 100 complete control)
Method in brief: as §1

[8] = tested on: nutsedge, yellow (yellow nutsedge, Cyperus esculentus); conditions: for Nutsedge, Yellow plant response rating: scale 0 to 100 (0 no effect, 100 complete control)
Method in brief: as §1

[9] = tested on: oat, wild (wild oat Avena fatua); conditions: for Oat, Wild plant response rating: scale 0 to 100 (0 no effect, 100 complete control)
Method in brief: as §1

[10] = tested on: oilseed rape (Brassica napus); conditions: for Oilseed Rape plant response rating: scale 0 to 100 (0 no effect, 100 complete control)
Method in brief: as §1

[11] = tested on: ragweed (common ragweed, Ambrosia elatior); conditions: for Ragweed plant response rating: scale 0 to 100 (0 no effect, 100 complete control)
Method in brief: as §1

[12] = tested on: ryegrass, Italian (Italian ryegrass, Lolium multiflorum); conditions: for Ryegrass, Italian plant response rating: scale 0 to 100 (0 no effect, 100 complete control)
Method in brief: as §1

[13] = tested on: soybean (Glycine max); conditions: for Soybean plant response rating: scale 0 to 100 (0 no effect, 100 complete control)
Method in brief: as §1

[14] = tested on: velvetleaf (Abutilon theophrasti)
Method in brief: as §1

[15] = tested on: waterhemp (common waterhemp, Amaranthus rudis)
Method in brief: as §1

[16] = tested on: wheat (winter wheat, Triticum aestivum)
Method in brief: as §1

[17] = 125 g ai/ha, scale 0 to 100 (0 no effect, 100 complete control)

SMILES: N#CC(CCCC(F)(F)F)c1ccccc1Oc1ncc(Cl)cn1 (centres unmarked) [Compound 144]
- Plant response rating, Barnyardgrass ([1]; 16 g ai/ha, scale of 0 to 100): 5
- Plant response rating, Barnyardgrass ([1]; 31 g ai/ha, scale 0 to 100): 5
- Barnyardgrass plant response rating ([1]; 62 g ai/ha): 10
- Barnyardgrass plant response rating ([1]; 125 g ai/ha): 10
- Plant response rating, Blackgrass ([2]; 16 g ai/ha, scale of 0 to 100): 10
- Plant response rating, Blackgrass ([2]; 31 g ai/ha, scale 0 to 100): 10
- Blackgrass plant response rating ([2]; 62 g ai/ha): 15
- Blackgrass plant response rating ([2]; 125 g ai/ha): 15
- Plant response rating, Corn ([3]; 16 g ai/ha, scale of 0 to 100): 15
- Plant response rating, Corn ([3]; 31 g ai/ha, scale 0 to 100): 15
- Corn plant response rating ([3]; 62 g ai/ha): 20
- Corn plant response rating ([3]; 125 g ai/ha): 25
- Plant response rating, Crabgrass, Large ([4]; 16 g ai/ha, scale of 0 to 100): 10
- Plant response rating, Crabgrass, Large ([4]; 31 g ai/ha, scale 0 to 100): 25
- Crabgrass, Large plant response rating ([4]; 62 g ai/ha): 20
- Crabgrass, Large plant response rating ([4]; 125 g ai/ha): 25
- Plant response rating, Galium ([5]; 16 g ai/ha, scale of 0 to 100): 50
- Plant response rating, Galium ([5]; 31 g ai/ha, scale 0 to 100): 70
- Galium plant response rating ([5]; 62 g ai/ha): 85
- Galium plant response rating ([5]; 125 g ai/ha): 90
- Plant response rating, Kochia ([6]; 16 g ai/ha, scale of 0 to 100): 85
- Plant response rating, Kochia ([6]; 31 g ai/ha, scale 0 to 100): 90
- Kochia plant response rating ([6]; 62 g ai/ha): 90
- Kochia plant response rating ([6]; 125 g ai/ha): 90
- Plant response rating, Lambsquarters ([7]; 16 g ai/ha, scale of 0 to 100): 40
- Plant response rating, Lambsquarters ([7]; 31 g ai/ha, scale 0 to 100): 75
- Lambsquarters plant response rating ([7]; 62 g ai/ha): 70
- Lambsquarters plant response rating ([7]; 125 g ai/ha): 85
- Plant response rating, Nutsedge, Yellow ([8]; 16 g ai/ha, scale of 0 to 100): 0
- Plant response rating, Nutsedge, Yellow ([8]; 31 g ai/ha, scale 0 to 100): 0
- Nutsedge, Yellow plant response rating ([8]; 62 g ai/ha): 10
- Nutsedge, Yellow plant response rating ([8]; 125 g ai/ha): 10
- Plant response rating, Oat, Wild ([9]; 16 g ai/ha, scale of 0 to 100): 20
- Plant response rating, Oat, Wild ([9]; 31 g ai/ha, scale 0 to 100): 30
- Oat, Wild plant response rating ([9]; 62 g ai/ha): 30
- Oat, Wild plant response rating ([9]; 125 g ai/ha): 35
- Plant response rating, Oilseed Rape ([10]; 16 g ai/ha, scale of 0 to 100): 35
- Plant response rating, Oilseed Rape ([10]; 31 g ai/ha, scale 0 to 100): 35
- Oilseed Rape plant response rating ([10]; 62 g ai/ha): 70
- Oilseed Rape plant response rating ([10]; 125 g ai/ha): 85
- Plant response rating, Ragweed ([11]; 16 g ai/ha, scale of 0 to 100): 10
- Plant response rating, Ragweed ([11]; 31 g ai/ha, scale 0 to 100): 15
- Ragweed plant response rating ([11]; 62 g ai/ha): 25
- Ragweed plant response rating ([11]; 125 g ai/ha): 15
- Plant response rating, Ryegrass, Italian ([12]; 16 g ai/ha, scale of 0 to 100): 5
- Plant response rating, Ryegrass, Italian ([12]; 31 g ai/ha, scale 0 to 100): 10
- Ryegrass, Italian plant response rating ([12]; 62 g ai/ha): 15
- Ryegrass, Italian plant response rating ([12]; 125 g ai/ha): 20
- Plant response rating, Soybean ([13]; 16 g ai/ha, scale of 0 to 100): 30
- Plant response rating, Soybean ([13]; 31 g ai/ha, scale 0 to 100): 30
- Soybean plant response rating ([13]; 62 g ai/ha): 50
- Soybean plant response rating ([13]; 125 g ai/ha): 65
- Plant response rating, Velvetleaf ([14]; 16 g ai/ha, scale of 0 to 100): 25
- Plant response rating, Velvetleaf ([14]; 31 g ai/ha, scale 0 to 100): 30
- Velvetleaf plant response rating [14, 17]: 65
- Plant response rating, Waterhemp ([15]; 16 g ai/ha, scale of 0 to 100): 35
- Plant response rating, Waterhemp ([15]; 31 g ai/ha, scale 0 to 100): 60
- Waterhemp plant response rating [15, 17]: 75
- Plant response rating, Waterhemp ([15]; rate not given, scale 0 to 100): 75
- Plant response rating, Wheat ([16]; 16 g ai/ha, scale of 0 to 100): 5
- Plant response rating, Wheat ([16]; 31 g ai/ha, scale 0 to 100): 5
- Wheat plant response rating [16, 17]: 15
